Source: patent US7381744B1, “Method of treating osteoporosis comprising vacuolar-type (H+)-ATPase-inhibiting compounds” (The United States of America as represented by the …, priority 1999, dated 2008)

Assays:
MCF-7 = test: NCI 60 cell-line screen; assay type: cell-based; conditions: Homo sapiens, MCF7, Breast, averaged, quadruplicate testing, read-out: negative log10 GI50 (converted)
Text: (§1) It is the concentration where 100×(T−To)/To=−50=PG. […] Res., 34, 91-109 (1995).

UO-31 = test: NCI 60 cell-line screen; assay type: cell-based; conditions: Homo sapiens, Kidney, averaged, quadruplicate testing, read-out: negative log10 GI50 (converted)
Text: as §1

NCI-H522 = test: NCI 60 cell-line screen; assay type: cell-based; conditions: Homo sapiens, Lung, averaged, quadruplicate testing, read-out: negative log10 GI50 (converted)
Text: as §1

OVCAR-5 = test: NCI 60 cell-line screen; assay type: cell-based; conditions: Homo sapiens, Ovary, averaged, quadruplicate testing, read-out: negative log10 GI50 (converted)
Text: as §1

DU-145 = test: NCI 60 cell-line screen; assay type: cell-based; conditions: Homo sapiens, Prostate, averaged, quadruplicate testing, read-out: negative log10 GI50 (converted)
Text: as §1

HT29 = test: NCI 60 cell-line screen; assay type: cell-based; conditions: Homo sapiens, HT-29, Colon, averaged, quadruplicate testing, read-out: negative log10 GI50 (converted)
Text: as §1

MDA-MB-231/ATCC = test: NCI 60 cell-line screen; assay type: cell-based; conditions: Homo sapiens, Breast, averaged, quadruplicate testing, read-out: negative log10 GI50 (converted)
Text: as §1

TK-10 = test: NCI 60 cell-line screen; assay type: cell-based; conditions: Homo sapiens, Kidney, averaged, quadruplicate testing, read-out: negative log10 GI50 (converted)
Text: as §1

SK-OV-3 = test: NCI 60 cell-line screen; assay type: cell-based; conditions: Homo sapiens, Ovary, averaged, quadruplicate testing, read-out: negative log10 GI50 (converted)
Text: as §1

NCI-H226 = test: NCI 60 cell-line screen; assay type: cell-based; conditions: Homo sapiens, Lung, averaged, quadruplicate testing, read-out: negative log10 GI50 (converted)
Text: as §1

OVCAR-4 = test: NCI 60 cell-line screen; assay type: cell-based; conditions: Homo sapiens, Ovary, averaged, quadruplicate testing, read-out: negative log10 GI50 (converted)
Text: as §1

SF-539 = test: NCI 60 cell-line screen; assay type: cell-based; conditions: Homo sapiens, Brain, averaged, quadruplicate testing, read-out: negative log10 GI50 (converted)
Text: as §1

NCI-H23 = test: NCI 60 cell-line screen; assay type: cell-based; conditions: Homo sapiens, Lung, averaged, quadruplicate testing, read-out: negative log10 GI50 (converted)
Text: as §1

CAKI-1 = test: NCI 60 cell-line screen; assay type: cell-based; conditions: Homo sapiens, Kidney, averaged, quadruplicate testing, read-out: negative log10 GI50 (converted)
Text: as §1

M14 = test: NCI 60 cell-line screen; assay type: cell-based; conditions: Homo sapiens, Melanoma, averaged, quadruplicate testing, read-out: negative log10 GI50 (converted)
Text: as §1

MCF-7-ADR-RES = test: NCI 60 cell-line screen; assay type: cell-based; conditions: Homo sapiens, Breast, averaged, quadruplicate testing, read-out: negative log10 GI50 (converted)
Text: as §1

HL-60-TB = test: NCI 60 cell-line screen; assay type: cell-based; conditions: Homo sapiens, HL-60, read-out: negative log10 GI50 (converted)
Text: as §1

MALME-3M = test: NCI 60 cell-line screen; assay type: cell-based; conditions: Homo sapiens, Melanoma, averaged, quadruplicate testing, read-out: negative log10 GI50 (converted)
Text: as §1

SNB-75 = test: NCI 60 cell-line screen; assay type: cell-based; conditions: Homo sapiens, Brain, averaged, quadruplicate testing, read-out: negative log10 GI50 (converted)
Text: as §1

MDA-MB-435 = test: NCI 60 cell-line screen; assay type: cell-based; conditions: Homo sapiens, Breast, averaged, quadruplicate testing, read-out: negative log10 GI50 (converted)
Text: as §1

HCC-2998 = test: NCI 60 cell-line screen; assay type: cell-based; conditions: Homo sapiens, Colon, averaged, quadruplicate testing, read-out: negative log10 GI50 (converted)
Text: as §1

UACC-62 = test: NCI 60 cell-line screen; assay type: cell-based; conditions: Homo sapiens, Melanoma, averaged, quadruplicate testing, read-out: negative log10 GI50 (converted)
Text: as §1

SW-620 = test: NCI 60 cell-line screen; assay type: cell-based; conditions: Homo sapiens, Colon, averaged, quadruplicate testing, read-out: negative log10 GI50 (converted)
Text: as §1

SNB-19 = test: NCI 60 cell-line screen; assay type: cell-based; conditions: Homo sapiens, Brain, averaged, quadruplicate testing, read-out: negative log10 GI50 (converted)
Text: as §1

NCI-H322M = test: NCI 60 cell-line screen; assay type: cell-based; conditions: Homo sapiens, Lung, averaged, quadruplicate testing, read-out: negative log10 GI50 (converted)
Text: as §1

EKVX = test: NCI 60 cell-line screen; assay type: cell-based; conditions: Homo sapiens, Lung, averaged, quadruplicate testing, read-out: negative log10 GI50 (converted)
Text: as §1

RPMI-8226 = test: NCI 60 cell-line screen; assay type: cell-based; conditions: Homo sapiens, Leukemia, averaged, quadruplicate testing, read-out: negative log10 GI50 (converted)
Text: as §1

OVCAR-3 = test: NCI 60 cell-line screen; assay type: cell-based; conditions: Homo sapiens, Ovary, averaged, quadruplicate testing, read-out: negative log10 GI50 (converted)
Text: as §1

U251 = test: NCI 60 cell-line screen; assay type: cell-based; conditions: Homo sapiens, U-251, Brain, averaged, quadruplicate testing, read-out: negative log10 GI50 (converted)
Text: as §1

[1] = test system: mammalian vacuolar-type (H+)-ATPase (from chromaffin granule membranes); test: mammalian vacuolar-type (H+)-ATPase inhibition, side-by-side test; assay type: biochemical; conditions: chromaffin granule membranes; side-by-side test
Text: The inhibitory data were obtained using the same procedures and biological preparations described in Bowman et al., Proc. Natl. Acad. Sci. USA, 85, 7972-7976 (November 1988).

[2] = test system: vacuolar-type (H+)-ATPase derived from human kidney cells (hK); test: vacuolar-type (H+)-ATPase inhibition assay, membrane vesicles (hK); assay type: biochemical; conditions: bafilomycin-sensitive activity; oligomycin 5 μg/ml and vanadate 1 mM present; 37°, 30 minutes
Description: (§2) Inhibition of bafilomycin-sensitive vacuolar-type (H+)-ATPase activity was measured in partially purified membrane vesicle preparations from human osteoclastoma cells (hOc), human renal cortical cells (hK), and macrophage cells (J774). The vesicles were prepared by appropriate adaptations of methods described in Gagliardi et al., J. Med. Chem., 41, 1568-1573 (1998); and Gagliardi et al., J. Med. Chem., 41, 1883-1893 (1998).
(§3) Vacuolar-type (H+)-ATPase assays were performed in the presence of oligomycin (5 μg/ml) and vanadate (1 mM) as inhibitors of F- and P-ATPases, respectively. A […] method was used to quantitate the residual bafilomycin-sensitive vacuolar-type (H+)-ATPase activity (see Chan et al., Anal. Biochem., 157, 375-380 (1986)). The assay measures the release of inorganic phosphate from ATP at 37° during 30 minutes of incubation. The reaction is initiated by the addition of MgSO4 ([…]).

[3] = test system: vacuolar-type (H+)-ATPase derived from macrophage cells (J774); test: vacuolar-type (H+)-ATPase inhibition assay, membrane vesicles (J774); assay type: biochemical; conditions: bafilomycin-sensitive activity; oligomycin 5 μg/ml and vanadate 1 mM present; 37°, 30 minutes
Description: as §2, §3

[4] = stability in solvents observed during isolation and NMR; assay type: physicochemical; conditions: deuterated chloroform
Text: Therefore, all subsequent attempts at isolation avoided the use of chloroform or exposure of samples to CDCl3, and no further problems with decomposition or loss of bioactivity were encountered. Moreover, there was no indication of any instability of the pure isolated compounds in any of the other common organic solvents employed, nor in aqueous or biological media.
Signals obscured by or unresolved in the first solvent were readily discernible in the second. Consequently, ^1H-^1H COSY, HMQC, and HMBC NMR data were gathered in both solvents. […] From a combination of the HMQC (Table 2) and the COSY spectral data, the partial structures illustrated in FIGS. 5A-5C were generated.

CC/C=C\C=C/C(=O)N/C=C/CC1CC(O)C(C)C/C=C/Cc2cccc(O)c2C(=O)O1 (stereo not drawn) [salicylihalamide A]
GI50 (MCF-7): 75.9 nM | GI50 (UO-31): 4.9 nM | GI50 (NCI-H522): 55 nM | GI50 (OVCAR-5): 7.76 nM | GI50 (DU-145): 5.5 nM | GI50 (HT29): 2.88 nM | GI50 (MDA-MB-231/ATCC): 120 nM | GI50 (TK-10): 1820 nM | GI50 (SK-OV-3): 2880 nM | GI50 (NCI-H226): 1.58 nM | GI50 (OVCAR-4): 5010 nM | GI50 (SF-539): 12.9 nM | GI50 (NCI-H23): 282 nM | GI50 (CAKI-1): 1.1 nM | GI50 (M14): 1.2 nM | GI50 (MCF-7-ADR-RES): 8.51 nM | GI50 (HL-60-TB): 0.912 nM | GI50 (MALME-3M): 24 nM | GI50 (SNB-75): 617 nM | GI50 (MDA-MB-435): 15.1 nM | GI50 (HCC-2998): 182 nM | GI50 (UACC-62): 4.17 nM | GI50 (SW-620): 28.8 nM | GI50 (SNB-19): 339 nM | GI50 (NCI-H322M): 191 nM | GI50 (EKVX): 30.2 nM | GI50 (RPMI-8226): 12.9 nM | GI50 (OVCAR-3): 93.3 nM | GI50 (U251): 26.9 nM | inhibitory activity against mammalian vacuolar-type (H+)-ATPase [1]: potent inhibitor | IC50 [2]: 0.3 nM | IC50 [3]: 2.8 nM | stability in CDCl3 [4]: sensitivity of salicylihalamide A to CDCl3
